Like-named read-outs stand apart in the source and are kept apart here.
Legend:
[1] = molecular target: T1, soluble recombinant human DPP-IV (Homo sapiens, UniProt P27487); test: In vitro inhibition of recombinant soluble DPP-IV by amino boronic dipeptides; assay type: biochemical; conditions: assayed at 3 minutes, 78 minutes and 16 hours after addition of Ala-Pro-AFC
T1 construct: immunoglobulin kappa light chain secretion signal (pSecTag2-B) (N, cleaved yes); made in house; host or cells: 293T cells, transient transfection; culture supernatant used unpurified
T1 sequence (P27487 39-766): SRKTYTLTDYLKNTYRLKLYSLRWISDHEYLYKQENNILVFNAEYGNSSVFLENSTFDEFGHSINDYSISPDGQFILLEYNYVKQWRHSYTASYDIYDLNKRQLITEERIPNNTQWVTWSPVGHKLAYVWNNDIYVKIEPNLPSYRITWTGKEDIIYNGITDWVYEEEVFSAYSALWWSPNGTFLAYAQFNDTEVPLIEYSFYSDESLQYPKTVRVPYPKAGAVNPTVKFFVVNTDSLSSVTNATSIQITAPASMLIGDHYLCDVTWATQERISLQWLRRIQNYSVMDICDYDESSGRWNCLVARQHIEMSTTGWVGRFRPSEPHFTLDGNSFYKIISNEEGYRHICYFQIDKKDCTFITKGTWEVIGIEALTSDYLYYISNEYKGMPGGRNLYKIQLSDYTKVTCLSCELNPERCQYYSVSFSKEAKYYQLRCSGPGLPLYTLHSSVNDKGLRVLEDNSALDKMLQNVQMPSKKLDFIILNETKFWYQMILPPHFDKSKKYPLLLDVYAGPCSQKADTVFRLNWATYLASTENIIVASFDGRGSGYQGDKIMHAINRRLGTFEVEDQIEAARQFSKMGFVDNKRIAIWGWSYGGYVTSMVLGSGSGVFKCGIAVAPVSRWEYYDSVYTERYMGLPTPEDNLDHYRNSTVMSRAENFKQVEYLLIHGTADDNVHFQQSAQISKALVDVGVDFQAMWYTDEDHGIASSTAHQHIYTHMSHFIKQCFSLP
Source text: Production of soluble recombinant human DPP-IV. Based on information on the N-terminus of serum DPP-IV (15), a truncated DPP-IV was engineered in which a signal/leader sequence was joined to the residue in DPP-IV corresponding to the N-terminus of serum DPP-IV to allow secretion. The cDNA encoding the desired truncated human DPP-IV dimer enzyme was engineered into the mammalian secretion vector pSecTag2 (Cat# V900-20, InVitrogen Corporation). The vector, available in A, B or C versions, representing three possible phases for gene fusion, contained an immunoglobulin-kappa light chain secretion signal followed by a selection of restriction sites for gene insertion. The fusion required engineering a restriction site upstream of the chosen fusion amino acid in the 5′ end of the DPP-IV dimer enzyme nucleic acid in phase with the chosen restriction site (Sfi I) in the vector secretion sequence. The chosen fusion amino acid in the 5′ end of the DPP-IV (Ser39) was 3′ of the trans-membrane anchoring domain. The pSecTag2 version B and its Sfi I restriction site was chosen for the fusion because it minimizes the additional N-terminal, vector-encoded residues in the mature secreted protein.
Construction of the fusion was as follows. First, total RNA was isolated from the Caco-2 colorectal carcinoma cell line (ATCC HTB-37) by standard Trizol/phenol /chloroform methodology. The purified RNA (approx. 2.5 μg in a 20 μl reaction) was used to make cDNA using oligo-dT primer and a commercial reverse transcription (RT) kit (InVitrogen). […] The following thermal cycler program was used: 94° C. for 45 sec. initial denaturation, then 30 cycles of 94° C., 10 sec.; 48° C., 6 sec.; 60° C., 4 min; followed by 5-min. extension at 72° C. after cycling.
DNA from the plasmid encoding DPP-IV dimer enzyme was prepared on an approximately 400 μg scale from overnight 30 ml cultures in Luria broth with 100 μg ampicillin per ml using a commercial kit (Qiagen Maxiprep Kit).
In vitro assay of enzymatic activity of recombinant soluble DPP-IV and inhibition by amino boronic dipeptides. The assay reaction mixture consisted of 135 μl 50 mM HEPES/Na buffer pH 7.6, 140 mM NaCl, 10-15 μl enzyme-containing culture supernatant, dipeptide substrate Ala-Pro-(7-amino-4-trifluoromethyl coumarin) (Ala-Pro-AFC; Enzyme System Products, Dublin, Calif.) at typically 0.1-1 mM added from a 100 or 400 mM stock in dimethyl formamide. The reaction mixture was incubated at room temperature, and production of the fluorescent AFC product was measured in a fluorometer (excitation, 400 nm; emission 505 nm), either by continuous monitoring or after termination with a one to one-tenth volume of 1-M sodium acetate, pH 4.5. Fluorometric reading were made with a […] Spectra Max GeminiXS capable of reading 96-well microtiter plates. The inhibitory activity of amino boronic dipeptides was investigated by preincubation of assay reaction mixtures with varying concentrations of each compound for 10 minutes before the addition of the substrate Ala-Pro-AFC.

serum DPP-IV [2] = molecular target: T2, serum DPP-IV (Mus musculus, UniProt P28843); test: Serum DPP-IV inhibition in vivo in BALB/c mice after oral gavage; conditions: 2 hours
T2 construct: from tissue; host or cells: serum of BALB/c mice dosed orally
T2 sequence (P28843 37-760 limits assumed): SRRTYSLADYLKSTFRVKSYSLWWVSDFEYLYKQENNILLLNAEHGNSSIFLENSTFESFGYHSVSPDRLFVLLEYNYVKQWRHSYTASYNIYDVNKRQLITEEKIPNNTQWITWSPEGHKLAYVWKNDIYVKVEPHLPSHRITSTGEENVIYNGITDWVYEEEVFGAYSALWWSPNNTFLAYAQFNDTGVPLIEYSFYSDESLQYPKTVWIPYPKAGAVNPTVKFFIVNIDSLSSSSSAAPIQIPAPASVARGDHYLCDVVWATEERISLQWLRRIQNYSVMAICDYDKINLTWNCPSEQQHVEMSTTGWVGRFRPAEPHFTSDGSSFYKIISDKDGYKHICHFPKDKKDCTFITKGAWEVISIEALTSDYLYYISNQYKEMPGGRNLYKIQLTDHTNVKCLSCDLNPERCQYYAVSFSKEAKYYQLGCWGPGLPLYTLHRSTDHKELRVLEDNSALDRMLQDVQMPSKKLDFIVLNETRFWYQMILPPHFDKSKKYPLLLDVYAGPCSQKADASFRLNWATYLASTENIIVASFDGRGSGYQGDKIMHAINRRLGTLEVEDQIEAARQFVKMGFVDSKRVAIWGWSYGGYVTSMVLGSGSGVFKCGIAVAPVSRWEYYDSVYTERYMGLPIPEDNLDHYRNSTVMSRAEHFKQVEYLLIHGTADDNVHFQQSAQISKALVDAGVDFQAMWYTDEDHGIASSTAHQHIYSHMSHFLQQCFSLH
Procedure: (§1) Assay of serum DPP-IV inhibition in vivo.
(§2) Assay ofserum DPP-IV inhibition and KC/CXCL1 levels in vivo. […] Each mouse received a single administration of each amino boronic dipeptide or saline, and blood samples were withdrawn from mice 2 hours later.
Serum DPP-IV activity was determined by reaction of a 10 μl volume of serum with 0.1 mM Ala-Pro-AFC (Enzyme System Products, Dublin, Calif.) in a 100 μl volume of 50 mM HEPES/Na buffer pH 7.6, 140 mM NaCl. […] Serum DPP-IV activity was expressed as fluorescent units (FU).

Zucker fa/fa rats = test: Rat oral glucose tolerance test (OGTT): glucose, insulin, GLP-1; assay type: in vivo; conditions: 10 μmol/kg oral
Source text: Protocol for rat oral glucose tolerance test (OGTT). […] On days −11 to −8, rats were fitted with intra-arterial catheters under light isoflurane anesthesia. […] From 12:00 a.m.

Lewis rats = test system: Lewis rats
Procedure: (§3) Serum DPP-IV inhibition and observation of acute toxicity of amino boronic dipeptides in Lewis rats. […] After observations were completed or at the onset of a moribund state, humane euthanasia was performed by asphyxiation in 100% CO2.

ob/ob mice = test: Mouse oral glucose tolerance test (OGTT); assay type: in vivo
Procedure: Protocol for mouse oral glucose tolerance test (OGTT). The day of oral-glucose challenge was defined as day 0. […] Agents were administered by oral gavage. Mice were restricted to a diet of 50% of their individual calculated food intake from day −1 onwards. On day 0, blood glucose was measured at t−15 min. immediately followed by drug administration. At time point 0, glucose was administered by oral gavage (1 g/kg), and blood glucose was measured at time points 0, 30, 60, 120 and 240 minutes. Means±SE were calculated from the data of individual mice in drug-treatment groups 1 and 2.

serum KC/CXCL1 = test: Serum KC/CXCL1 levels in vivo in BALB/c mice; conditions: 0.2-200 μg/mouse oral, 2 hours
Procedure: as §2
Serum concentration of mouse KC/CXCL1 was determined by Quantikine enzyme-linked immunosorbent assay (ELISA; R&D Systems, Minneapolis, Minn.) according to the manufacturer's instructions. ELISA was performed in duplicate for each sample.

[3] = test system: human bone marrow stromal cells; test: G-CSF supernatant levels in human bone marrow stromal cell cultures; assay type: cell-based; conditions: 1 to 10^4 nM, 24 hours in vitro
Procedure: Human bone marrow stromal cell cultures. Samples of normal human bone marrow were purchased from Cambrex Bioproducts (Walkersville, Md.) and mononuclear cells were purified over Ficoll-Hypaque (Nycomed, Oslo, Norway). Human stromal layers were established by seeding 4×10^7 mononuclear cells into T75 flasks (Coming) containing 20 ml MyeloCult medium (Stem Cell Technologies, Vancouver, BC) supplemented with 10^−6 M hydrocortisone (Sigma) and incubation at 37° C. in 100% humidified 5% CO2 in air. After one week, half the medium was exchanged, and the cultures incubated for approximately one week more, after which time, a semi-confluent cell layer was formed. Stromal cells were harvested by trypsinization using standard technique and 10^5 cells/well were seeded in multi-well plates in 1 ml of fully supplemented DMEM (InVitrogen, Carlsbad, Calif.). […] Multiwell cultures without the addition of amino boronic dipeptides served as controls. […] Supernatant concentrations of human G-CSF were determined by Quantikine enzyme-linked immunosorbent assay (ELISA; R&D Systems, Minneapolis, Minn.) according to the manufacturer's instructions. […] The effect of each amino boronic dipeptide on the level of supernatant G-CSF was determined by calculating a stimulation index (SI): SI=(mean G-CSF concentration in culture with amino boronic dipeptide)/(mean G-CSF concentration in control culture).

serum DPP-IV [4] = molecular target: T3, serum DPP-IV (Rattus norvegicus, UniProt P14740); test: Serum DPP-IV inhibition in Lewis rats; assay type: in vivo; conditions: single oral administration, 2 hours
T3 construct: from tissue; host or cells: serum of Lewis rats dosed in vivo
T3 sequence (P14740 37-767 limits assumed): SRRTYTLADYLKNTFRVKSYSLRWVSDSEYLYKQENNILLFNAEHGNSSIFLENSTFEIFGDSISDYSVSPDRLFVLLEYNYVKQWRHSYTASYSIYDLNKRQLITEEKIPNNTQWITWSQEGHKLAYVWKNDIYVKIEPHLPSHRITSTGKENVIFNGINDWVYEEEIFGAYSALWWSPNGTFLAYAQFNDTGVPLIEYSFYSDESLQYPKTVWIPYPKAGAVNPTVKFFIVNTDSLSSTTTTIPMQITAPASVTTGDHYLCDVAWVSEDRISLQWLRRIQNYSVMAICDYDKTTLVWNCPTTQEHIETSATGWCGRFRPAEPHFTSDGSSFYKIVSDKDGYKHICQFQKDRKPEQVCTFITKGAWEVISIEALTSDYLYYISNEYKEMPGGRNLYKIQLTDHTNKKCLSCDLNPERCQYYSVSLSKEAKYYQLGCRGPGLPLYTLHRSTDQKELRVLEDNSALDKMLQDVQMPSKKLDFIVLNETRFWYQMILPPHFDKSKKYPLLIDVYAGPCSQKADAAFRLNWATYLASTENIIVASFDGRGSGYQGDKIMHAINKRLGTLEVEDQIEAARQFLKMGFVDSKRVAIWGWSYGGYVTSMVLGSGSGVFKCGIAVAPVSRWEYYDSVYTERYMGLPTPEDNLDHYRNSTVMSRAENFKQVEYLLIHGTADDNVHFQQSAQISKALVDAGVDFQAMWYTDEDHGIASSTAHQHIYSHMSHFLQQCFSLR
Procedure: as §1, §3

[5] = Lewis rats, single dose, observed 5 days

| SMILES | Persistence / reversibility of DPP-IV inhibition [1] | Effect on serum levels of KC/CXCL1 (serum KC/CXCL1) | MTD (maximum tolerated dose) (Lewis rats; [5]) | also measured |
| --- | --- | --- | --- | --- |
| N[C@@H](Cc1ccccc1)C(=O)N1CCC[C@H]1B(O)O [Phe-boroPro] | more rapidly reversible |  |  |  |
| N[C@@H](CCC(=O)O)C(=O)N1CCC[C@H]1B(O)O [Glu-boroPro] | sustained DPP-IV inhibition | failed to affect serum levels of KC/CXCL1 at any of the doses tested |  | Inhibition of serum DPP-IV activity (serum DPP-IV [2]; 20 and 200 μg doses per mouse, oral): maximally inhibited serum DPP-IV activity; ID50 (dose required to reduce serum DPP-IV activity by 50% of baseline) (serum DPP-IV [2]; BALB/c mice, single oral dose): 1 μg/mouse; Blood plasma level of GLP-1 following oral glucose challenge (Zucker fa/fa rats): increased; Blood plasma level of insulin following oral glucose challenge (Zucker fa/fa rats): increased; Blood glucose excursion after oral glucose challenge (Zucker fa/fa rats; glucose 2 g/kg): reduced; MTD (maximum tolerated dose) (Lewis rats; Lewis, rat, in vivo, 5 days): 15,000 μg/kg; Glucose excursion post oral glucose challenge (ob/ob mice; 1.0 μmol/kg oral, 15 minutes prior to glucose 1 g/kg): reduced; Anti-glycemic effect (area under the blood glucose curve) (ob/ob mice; single 1.0 μmol/kg dose, ANOVA): significant (P=0.0010) |
| N[C@@H](CO)C(=O)N1CCC[C@H]1B(O)O [Ser-boroPro] |  |  | 4,000 μg/kg |  |
| NCCCC[C@H](N)C(=O)N1CCC[C@H]1B(O)O [Lys-boroPro] | more rapidly reversible |  | ≧2,000 μg/kg |  |
| NC(N)=NCCC[C@H](N)C(=O)N1CCC[C@H]1B(O)O [Arg-boroPro] | more rapidly reversible |  | ≧2,000 μg/kg |  |
| CSCC[C@H](N)C(=O)N1CCC[C@H]1B(O)O [Met-boroPro] |  |  | 160 µg/kg |  |
| CC(C)C[C@H](N)C(=O)N1CCC[C@H]1B(O)O [Leu-boroPro] | more rapidly reversible | stimulate increased serum levels of KC/CXCL1 in a dose-dependent manner | 200 µg/kg | Stimulation of G-CSF levels in culture supernatants (stimulation index) [3]: stimulate increased levels of G-CSF |
| O=C(C1CCCN1)N1CCCC1B(O)O (stereo not drawn) [Pro-boroPro] | more rapidly reversible |  | ≧2,000 μg/kg |  |
| C[C@H](N)C(=O)N1CCC[C@H]1B(O)O [Ala-boroPro] |  |  | ≧2,000 μg/kg |  |
| C[C@@H](O)[C@H](N)C(=O)N1CCC[C@H]1B(O)O [Thr-boroPro] |  |  | 800 µg/kg |  |
| CC(C)[C@H](N)C(=O)N1CCC[C@H]1B(O)O [Val-boroPro] |  | stimulate increased serum levels of KC/CXCL1 in a dose-dependent manner | 20 µg/kg | ID50 (dose causing a 50% reduction in serum DPP-IV activity from baseline) (serum DPP-IV [4]): 0.009 mg/kg |
| NC(=O)CC[C@H](N)C(=O)N1CCC[C@H]1B(O)O [Gln-boroPro] |  |  | ≧800 μg/kg |  |
| CC[C@H](C)[C@H](N)C(=O)N1CCC[C@H]1B(O)O [Ile-boroPro] | sustained DPP-IV inhibition | stimulate increased serum levels of KC/CXCL1 in a dose-dependent manner | 120 µg/kg | Stimulation of G-CSF levels in culture supernatants (stimulation index) [3]: stimulate increased levels of G-CSF |

Source: patent US20070072830A1, “Methods for treating diabetes” (Point Therapeutics, Inc., priority 2004, published 2007)
